Assay results taken from PubChem BioAssay AID330 (DTP/NCI, 2004).
Several values for one entry are separate records, joined by “and”; a condition that tells them apart may be missing. Equal values may be shown once. Toxic doses and inconclusive results are not listed.

System: P388 leukemia ip, CD2F1 mice, survival T/C
Assay: NCI In Vivo Anticancer Drug Screen. Data for tumor model P388 Leukemia (intraperitoneal) in CD2F1 (CDF1) mice
Details: endpoint: median survival time, higher = longer survival
How it was run: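 Mice carrying the transplanted tumor received test compound or vehicle. Survival was recorded in each group, and the value is the treated-group measurement divided by that of the vehicle-treated control group.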

[1] = dose: 60.0 mg/kg/injection, schedule: Q01DX005 (ip), vehicle: saline
[2] = dose: 50.0 mg/kg/injection, schedule: Q01DX005 (ip), vehicle: Klucel (hydroxypropylcellulose) (HPC)
[3] = dose: 100.0 mg/kg/injection, schedule: Q04DX003 (ip), vehicle: Klucel (hydroxypropylcellulose) (HPC)
[4] = dose: 200.0 mg/kg/injection, schedule: Q04DX003 (ip), vehicle: Klucel (hydroxypropylcellulose) (HPC)
[5] = dose: 12.5 mg/kg/injection, schedule: Q01DX009 (ip), vehicle: distilled water + Tween-80
[6] = dose: 25.0 mg/kg/injection, schedule: Q01DX009 (ip), vehicle: distilled water + Tween-80
[7] = dose: 25.0 mg/kg/injection, schedule: Q01DX009 (ip), vehicle: Klucel (hydroxypropylcellulose) (HPC)
[8] = dose: 50.0 mg/kg/injection, schedule: Q01DX009 (ip), vehicle: Klucel (hydroxypropylcellulose) (HPC)
[9] = dose: 50.0 mg/kg/injection, schedule: Q01DX009 (ip), vehicle: saline with Tween-80
[10] = dose: 100.0 mg/kg/injection, schedule: Q01DX009 (ip), vehicle: saline with Tween-80
[11] = dose: 200.0 mg/kg/injection, schedule: Q01DX009 (ip), vehicle: saline with Tween-80
[12] = dose: 50.0 mg/kg/injection, schedule: Q01DX005 (ip), vehicle: saline with Tween-80
[13] = dose: 100.0 mg/kg/injection, schedule: Q01DX005 (ip), vehicle: saline with Tween-80
[14] = dose: 60.0 mg/kg/injection, schedule: Q01DX005 (ip), vehicle: saline with Tween-80
[15] = dose: 120.0 mg/kg/injection, schedule: Q01DX005 (ip), vehicle: saline with Tween-80

## Cc1ccc(N=NC2Sc3nc4ccccc4n3C2=O)cc1 (configuration not stated)
dose: 60.0 mg/kg/injection, schedule: Q01DX005 (ip), vehicle: Klucel (hydroxypropylcellulose) (HPC)
  T/C: 101 % of control
dose: 120.0 mg/kg/injection, schedule: Q01DX005 (ip), vehicle: Klucel (hydroxypropylcellulose) (HPC)
  T/C: 97 % of control
dose: 240.0 mg/kg/injection, schedule: Q01DX005 (ip), vehicle: Klucel (hydroxypropylcellulose) (HPC)
  T/C: 88 % of control

## COc1ccccc1C(=O)C(CN(C)C)CN(C)C
dose: 1.87 mg/kg/injection, schedule: Q01DX005 (ip), vehicle: saline
  T/C: 105 % of control
dose: 3.75 mg/kg/injection, schedule: Q01DX005 (ip), vehicle: saline
  T/C: 108 % of control
dose: 7.5 mg/kg/injection, schedule: Q01DX005 (ip), vehicle: saline
  T/C: 112 % of control
[1]
  T/C: 112 % of control

## COc1cc2c(c(OC)c1OC)-c1cc3c(cc1CC(CO)C(CO)C2)OCO3 (configuration not stated)
dose: 0.5 mg/kg/injection, schedule: Q04DX002 (ip), vehicle: saline with Tween-80
  T/C: 101 % of control
dose: 1.0 mg/kg/injection, schedule: Q04DX002 (ip), vehicle: saline with Tween-80
  T/C: 106 % of control
dose: 2.0 mg/kg/injection, schedule: Q04DX002 (ip), vehicle: saline with Tween-80
  T/C: 103 % of control

## CCC(=O)C(C)C(=O)CCC(=O)Nc1cc(Cl)ccc1Cl (configuration not stated)
[1]
  T/C: 101 % of control
dose: 120.0 mg/kg/injection, schedule: Q01DX005 (ip), vehicle: saline
  T/C: 103 % of control
dose: 240.0 mg/kg/injection, schedule: Q01DX005 (ip), vehicle: saline
  T/C: 103 % of control

## CCN(CC)CCSSCCN(CC)CC.[Cl][Mn][Cl]
[2]
  T/C: 114 % of control
dose: 100.0 mg/kg/injection, schedule: Q01DX005 (ip), vehicle: Klucel (hydroxypropylcellulose) (HPC)
  T/C: 117 % of control

## O=C1N2CCSC2=NC1(c1ccccc1)c1ccccc1
dose: 25.0 mg/kg/injection, schedule: Q04DX003 (ip), vehicle: Klucel (hydroxypropylcellulose) (HPC)
  T/C: 100 % of control
dose: 50.0 mg/kg/injection, schedule: Q04DX003 (ip), vehicle: Klucel (hydroxypropylcellulose) (HPC)
  T/C: 100 % of control
[3]
  T/C: 93 % of control
[4]
  T/C: 102 % of control
dose: 400.0 mg/kg/injection, schedule: Q04DX003 (ip), vehicle: Klucel (hydroxypropylcellulose) (HPC)
  T/C: 100 % of control

## COc1ccc(/C(C#N)=C\c2ccnc3ccccc23)cc1
dose: 1.56 mg/kg/injection, schedule: Q01DX009 (ip), vehicle: distilled water + Tween-80
  T/C: 103 % of control
dose: 3.13 mg/kg/injection, schedule: Q01DX009 (ip), vehicle: distilled water + Tween-80
  T/C: 94 % of control
dose: 6.25 mg/kg/injection, schedule: Q01DX009 (ip), vehicle: distilled water + Tween-80
  T/C: 93 % of control
[5]
  T/C: 94 % of control
[6]
  T/C: 91 % of control

## C/C=C(/C)C(=O)OC1c2c(C)coc2CC23OC2CCC(C)C13C (configuration not stated)
dose: 12.5 mg/kg/injection, schedule: Q01DX009 (ip), vehicle: Klucel (hydroxypropylcellulose) (HPC)
  T/C: 98 % of control
[7]
  T/C: 105 % of control
[8]
  T/C: 99 % of control

## COc1ccc2cc3n(cc-2c1=O)CCc1cc2c(cc1-3)OCO2
dose: 100.0 mg/kg/injection, schedule: Q04DX003 (ip), vehicle: water
  T/C: 160 % of control

## CCc1cc2c(cc1C(C)=O)C(C)(C)CCC2(C)C
[9]
  T/C: 94 % of control
[10]
  T/C: 110 % of control

## CS(C)=NC(=Nc1ccccc1)c1ccccc1
dose: 50.0 mg/kg/injection, schedule: Q04DX003 (ip), vehicle: saline with Tween-80
  T/C: 101 % of control
dose: 100.0 mg/kg/injection, schedule: Q04DX003 (ip), vehicle: saline with Tween-80
  T/C: 104 % of control

## CCOc1cc(/C=C2\SC(=O)N(CC)C2=O)ccc1O
[9]
  T/C: 108 % of control
[10]
  T/C: 109 % of control
[11]
  T/C: 90 % of control

## Cn1ccnc1Sc1ccnc(Sc2ccc([N+](=O)[O-])cc2[N+](=O)[O-])n1
dose: 50.0 mg/kg/injection, schedule: Q01DX009 (ip), vehicle: saline
  T/C: 108 % of control
dose: 100.0 mg/kg/injection, schedule: Q01DX009 (ip), vehicle: saline
  T/C: 96 % of control
dose: 200.0 mg/kg/injection, schedule: Q01DX009 (ip), vehicle: saline
  T/C: 87 % of control

## CC1=NN(C(=O)c2ccncc2)C(=O)C1N=Nc1ccc(S(=O)(=O)Nc2ccccn2)cc1 (configuration not stated)
[9]
  T/C: 92 % of control
[10]
  T/C: 90 % of control
[11]
  T/C: 103 % of control

## COc1ccc(N=C(Cl)c2ccc(Br)cc2)cc1
[12]
  T/C: 97 % of control
[13]
  T/C: 96 % of control
dose: 200.0 mg/kg/injection, schedule: Q01DX005 (ip), vehicle: saline with Tween-80
  T/C: 96 % of control

## Cc1cc(O)c2c3c(c(=O)oc2c1)CP(=O)(c1ccccc1)CC3 (configuration not stated)
dose: 100.0 mg/kg/injection, schedule: Q01DX001 (ip), vehicle: saline with Tween-80
  T/C: 94 % of control
dose: 200.0 mg/kg/injection, schedule: Q01DX001 (ip), vehicle: saline with Tween-80
  T/C: 91 % of control
dose: 400.0 mg/kg/injection, schedule: Q01DX001 (ip), vehicle: saline with Tween-80
  T/C: 91 % of control

## CCOC(=O)C1=C(C)Oc2cc3c(cc2C1c1cc(OC)c(OC)c(OC)c1)OCO3 (configuration not stated)
[14]
  T/C: 97 % of control
[15]
  T/C: 98 % of control
dose: 240.0 mg/kg/injection, schedule: Q01DX005 (ip), vehicle: saline with Tween-80
  T/C: 94 % of control

## COC(=O)c1cc2cc(OC)c(OC)cc2c2ccccc12
[12]
  T/C: 90 % of control
[13]
  T/C: 90 % of control

## O=C(O)C(O)C(O)C(O)C(O)c1nn[nH]n1 (configuration not stated)
dose: 100.0 mg/kg/injection, schedule: Q01DX001 (ip), vehicle: saline
  T/C: 101 % of control
dose: 200.0 mg/kg/injection, schedule: Q01DX001 (ip), vehicle: saline
  T/C: 98 % of control
dose: 400.0 mg/kg/injection, schedule: Q01DX001 (ip), vehicle: saline
  T/C: 93 % of control

## COC1/C=C\OC2(C)Oc3c(C)c(O)c4c(O)c(c5[nH]cnc5c4c3C2=O)NC(=O)/C(C)=C\C=C\C(C)C(O)C(C)C(O)C(C)C(OC(C)=O)C1C (configuration not stated)
[7]
  T/C: 102 % of control
[8]
  T/C: 102 % of control
dose: 100.0 mg/kg/injection, schedule: Q01DX009 (ip), vehicle: Klucel (hydroxypropylcellulose) (HPC)
  T/C: 100 % of control
dose: 200.0 mg/kg/injection, schedule: Q01DX009 (ip), vehicle: Klucel (hydroxypropylcellulose) (HPC)
  T/C: 108 % of control

## NC(=O)CCNC(=O)CCCNC(=O)CCC[c-]1[c-][c-][c-][c-]1.[Fe].[c-]1[c-][c-][cH-][c-]1
[5]
  T/C: 111 % of control and 119 % of control
[6]
  T/C: 115 % of control
dose: 100.0 mg/kg/injection, schedule: Q01DX009 (ip), vehicle: distilled water + Tween-80
  T/C: 123 % of control

## C/C=C1/C(=O)O[C@]23C=C[C@@H]4C(C(=O)OC)=CO[C@H](O[C@@H]12)[C@@H]43
dose: 1.25 mg/kg/injection, schedule: Q01DX009 (ip), vehicle: Klucel (hydroxypropylcellulose) (HPC)
  T/C: 96 % of control
dose: 2.5 mg/kg/injection, schedule: Q01DX009 (ip), vehicle: Klucel (hydroxypropylcellulose) (HPC)
  T/C: 98 % of control
dose: 5.0 mg/kg/injection, schedule: Q01DX009 (ip), vehicle: Klucel (hydroxypropylcellulose) (HPC)
  T/C: 102 % of control
dose: 10.0 mg/kg/injection, schedule: Q01DX009 (ip), vehicle: Klucel (hydroxypropylcellulose) (HPC)
  T/C: 109 % of control

## C=C1C(=O)OC2/C=C(\CO)C3OC3C3OC3(C)CC(OC(=O)/C(=C/C)CO)C12 (configuration not stated)
dose: 3.12 mg/kg/injection, schedule: Q01DX005 (ip), vehicle: Klucel (hydroxypropylcellulose) (HPC)
  T/C: 99 % of control and 106 % of control
dose: 6.25 mg/kg/injection, schedule: Q01DX005 (ip), vehicle: Klucel (hydroxypropylcellulose) (HPC)
  T/C: 100 % of control and 107 % of control and 110 % of control
dose: 12.5 mg/kg/injection, schedule: Q01DX005 (ip), vehicle: Klucel (hydroxypropylcellulose) (HPC)
  T/C: 105 % of control and 106 % of control
[2]
  T/C: 100 % of control and 109 % of control

## CCCC(C)(C(=O)Nc1ccc2nc(C)cc(N)c2c1)C(=O)Nc1ccc2nc(C)cc(N)c2c1
[12]
  T/C: 94 % of control
[13]
  T/C: 96 % of control

## CC(=O)C[C@H](c1ccccc1)c1ccccc1[C@H](C)N(C)C
[14]
  T/C: 106 % of control
[15]
  T/C: 104 % of control

## COC1C=C(Br)C(=O)C(C)O1 (configuration not stated)
[3]
  T/C: 98 % of control
[4]
  T/C: 106 % of control
